Reference: patent publication US11945822B2, “Pyrazolo-triazine and/or pyrazolo-pxrimidine derivatives as selective inhibitor of cyclin dependent kinase” (QURIENT CO., LTD., priority 2018, dated 2024)
pIC50: −log10 of the molar value.

Legend:
CDK1/Cyclin B = target: T1, CDK1/Cyclin B (Homo sapiens, UniProt P06493); experiment: Enzymatic assay for CDK1 (FRET based LANCE Ultra kinase assay); format: biochemical; settings: read-out: CDK1 enzymatic activity (IC50 range)
T1 construct: purchased Invitrogen PR4768C
How it was run: (§1)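 LANCE Ultra TR-FRET: ULight-MBP peptide (68 nM) with ATP at Km, […], 60 min at 23° C. EDTA plus Eu-anti-phospho-MBP added, another 60 min, then 665/615 nm emission read. Compounds tested as 8-dose 4-fold DMSO dilutions.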

H460 = experiment: Cellular H460 viability assay (CellTiter-Glo, 72 hours); format: cell-based; settings: Homo sapiens, NCI-H460
How it was run: (§2)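 Mycoplasma-tested cells, seeded at densities chosen for each line, received compound or DMSO vehicle (under 0.1% final) for 72 hours. Duplicate cultures were then read for viability by CellTiter-Glo luminescence.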

CDK7/Cyclin H/MNAT1 = target: T2, CDK7/Cyclin H/MNAT1 (Homo sapiens, UniProt P50613); experiment: Enzymatic assay for CDK7 (FRET based LANCE Ultra kinase assay); format: biochemical; settings: for pIC50: read-out: CDK7 enzymatic activity (IC50 range)
T2 construct: purchased Invitrogen PR6749B
How it was run: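 Inhibition was measured at Km ATP by time-resolved FRET between a Eu anti-phospho antibody and a phosphorylated ULight peptide. The enzyme was the purified CDK7/cyclin complex, and data were curve-fitted.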

HCT116 = experiment: Cellular HCT116 viability assay (CellTiter-Glo, 72 hours); format: cell-based; settings: Homo sapiens, HCT-116
How it was run: as §2

CDK2/Cyclin A = target: T3, CDK2/Cyclin A (Homo sapiens, UniProt P24941); experiment: Enzymatic assay for CDK2 (FRET based LANCE Ultra kinase assay); format: biochemical; settings: read-out: CDK2 enzymatic activity (IC50 range)
T3 construct: purchased Invitrogen PV6290
How it was run: as §1

CDK5/p25 = target: T4, CDK5/p25 (Homo sapiens, UniProt Q00535); experiment: Enzymatic assay for CDK5 (FRET based LANCE Ultra kinase assay); format: biochemical; settings: read-out: CDK5 enzymatic activity (IC50 range)
T4 construct: purchased Invitrogen PR8543B
How it was run: as §1

MV4-11 = experiment: Cellular MV4-11 viability assay (CellTiter-Glo, 72 hours); format: cell-based; settings: Homo sapiens
How it was run: as §2

T1 sequence (P06493 whole entry): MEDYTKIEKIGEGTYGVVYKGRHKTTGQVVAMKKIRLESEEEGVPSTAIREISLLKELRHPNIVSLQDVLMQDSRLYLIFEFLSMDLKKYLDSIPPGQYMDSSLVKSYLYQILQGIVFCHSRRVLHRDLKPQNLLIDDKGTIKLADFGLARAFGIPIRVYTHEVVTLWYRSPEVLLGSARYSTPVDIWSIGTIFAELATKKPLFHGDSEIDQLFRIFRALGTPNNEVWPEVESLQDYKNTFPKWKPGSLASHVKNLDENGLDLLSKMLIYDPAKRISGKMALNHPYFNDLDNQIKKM
T1 sequence (P14635 whole entry partner): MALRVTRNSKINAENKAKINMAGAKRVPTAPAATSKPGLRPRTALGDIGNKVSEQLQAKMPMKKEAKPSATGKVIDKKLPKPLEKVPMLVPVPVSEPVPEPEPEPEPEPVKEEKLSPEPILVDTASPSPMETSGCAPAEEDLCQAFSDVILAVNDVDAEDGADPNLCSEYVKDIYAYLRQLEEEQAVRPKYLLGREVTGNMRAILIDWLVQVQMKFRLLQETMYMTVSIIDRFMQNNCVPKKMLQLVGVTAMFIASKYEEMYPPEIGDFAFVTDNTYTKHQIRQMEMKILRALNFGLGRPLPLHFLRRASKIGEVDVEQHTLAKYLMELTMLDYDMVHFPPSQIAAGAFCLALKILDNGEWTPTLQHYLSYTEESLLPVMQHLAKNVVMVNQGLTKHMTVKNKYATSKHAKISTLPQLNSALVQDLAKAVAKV
T2 sequence (P50613 whole entry): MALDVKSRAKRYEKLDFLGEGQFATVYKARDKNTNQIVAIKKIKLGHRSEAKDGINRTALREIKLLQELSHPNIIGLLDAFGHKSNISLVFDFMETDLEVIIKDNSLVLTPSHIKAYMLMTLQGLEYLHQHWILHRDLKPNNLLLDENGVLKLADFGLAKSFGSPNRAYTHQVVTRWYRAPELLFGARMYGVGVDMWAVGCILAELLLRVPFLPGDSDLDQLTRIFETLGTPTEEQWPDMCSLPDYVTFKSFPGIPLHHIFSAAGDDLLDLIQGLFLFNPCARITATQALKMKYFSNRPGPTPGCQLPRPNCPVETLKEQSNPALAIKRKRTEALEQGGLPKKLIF
T2 sequence (P51946 whole entry partner): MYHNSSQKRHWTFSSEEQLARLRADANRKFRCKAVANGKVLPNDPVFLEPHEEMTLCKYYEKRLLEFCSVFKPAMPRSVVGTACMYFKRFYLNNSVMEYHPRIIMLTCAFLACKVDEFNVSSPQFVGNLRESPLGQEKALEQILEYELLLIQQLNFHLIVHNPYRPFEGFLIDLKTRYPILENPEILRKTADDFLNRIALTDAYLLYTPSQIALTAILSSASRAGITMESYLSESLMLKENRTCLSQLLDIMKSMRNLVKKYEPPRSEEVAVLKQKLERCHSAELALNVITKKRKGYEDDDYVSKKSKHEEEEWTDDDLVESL
T2 sequence (P51948 whole entry partner): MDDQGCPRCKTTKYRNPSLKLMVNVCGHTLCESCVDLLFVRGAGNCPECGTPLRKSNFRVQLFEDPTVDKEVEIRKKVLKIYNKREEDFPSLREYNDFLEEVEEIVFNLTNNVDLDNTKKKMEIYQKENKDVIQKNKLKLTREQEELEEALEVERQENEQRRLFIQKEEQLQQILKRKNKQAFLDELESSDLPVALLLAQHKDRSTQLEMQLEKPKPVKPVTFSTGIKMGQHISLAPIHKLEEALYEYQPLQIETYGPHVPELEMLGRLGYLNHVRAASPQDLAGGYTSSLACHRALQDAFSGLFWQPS
T4 sequence (Q00535 whole entry): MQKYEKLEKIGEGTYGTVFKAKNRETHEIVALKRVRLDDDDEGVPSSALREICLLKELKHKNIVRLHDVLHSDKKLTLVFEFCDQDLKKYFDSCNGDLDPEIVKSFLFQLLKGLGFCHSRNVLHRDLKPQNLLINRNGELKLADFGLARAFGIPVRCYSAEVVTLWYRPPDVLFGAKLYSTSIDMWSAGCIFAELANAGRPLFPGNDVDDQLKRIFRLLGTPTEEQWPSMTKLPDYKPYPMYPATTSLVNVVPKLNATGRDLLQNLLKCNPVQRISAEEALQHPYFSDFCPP
T4 sequence (Q15078 99-307 partner limits assumed): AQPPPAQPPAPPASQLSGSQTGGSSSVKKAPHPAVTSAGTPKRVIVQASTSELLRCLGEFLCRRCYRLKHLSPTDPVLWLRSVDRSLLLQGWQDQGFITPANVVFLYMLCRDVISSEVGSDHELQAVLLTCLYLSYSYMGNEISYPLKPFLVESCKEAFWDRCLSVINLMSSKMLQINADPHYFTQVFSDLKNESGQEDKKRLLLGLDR

SMILES	pIC50 (CDK1/Cyclin B)	pIC50 (H460)	CDK1/CDK7: Selectivity of CDK7 inhibition over CDK1 inhibition (CDK7/Cyclin H/MNAT1)	CDK2/CDK7: Selectivity of CDK7 inhibition over CDK2 inhibition (CDK7/Cyclin H/MNAT1)	CDK5/CDK7: Selectivity of CDK7 inhibition over CDK5 inhibition (CDK7/Cyclin H/MNAT1)	pIC50 (CDK7/Cyclin H/MNAT1)	pIC50 (HCT116)	pIC50 (CDK2/Cyclin A)	pIC50 (CDK5/p25)	pIC50 (MV4-11)
CC(C)c1cnn2c(NCc3ccccc3-c3ccc4ccccc4n3)nc(OCC3CCNCC3O)nc12 (stereo not shown) [Compound 218]	< 6.00	> 6.00	A (A=greater than 200 fold)	A (A=greater than 200 fold)	A (A=greater than 200 fold)	> 7.00	> 6.00	< 6.00	< 6.00	> 6.00
CC(C)c1cnn2c(NCc3ccccc3-n3ccc(C(C)(C)O)n3)nc(NCC3CCNCC3)nc12 [Compound 224]	< 6.00	> 6.00	A (A=greater than 200 fold)	A (A=greater than 200 fold)	A (A=greater than 200 fold)	> 7.00	> 6.00	< 6.00	< 6.00	> 6.00
CC(C)c1cnn2c(NCc3ccccc3-n3cc(N4CCOCC4)cn3)nc(N3CCC(N)CC3)nc12 [Compound 156]	< 6.00	> 6.00	A (A=greater than 200 fold)	B (B=less than 200 fold, but greater than 20 fold)	B (B=less than 200 fold, but greater than 20 fold)	> 7.00	> 6.00	6.00 to 7.00	6.00 to 7.00	> 6.00
CC(C)c1cnn2c(NCc3c(Cl)cccc3-n3ccc(C(=O)NC4CCOCC4)n3)nc(N3CCC(N)CC3)nc12 [Compound 201]	< 6.00	> 6.00	A (A=greater than 200 fold)	A (A=greater than 200 fold)	B (B=less than 200 fold, but greater than 20 fold)	> 7.00	> 6.00	< 6.00	6.00 to 7.00	> 6.00
CC(C)c1cnn2c(NCc3ccccc3-n3ccc(C(C)(C)O)n3)nc(N3CCC(CN)CC3)nc12 [Compound 221]	< 6.00	> 6.00	A (A=greater than 200 fold)	A (A=greater than 200 fold)	A (A=greater than 200 fold)	> 7.00	> 6.00	< 6.00	< 6.00	> 6.00
CC(C)c1cnn2c(NCc3ccccc3-c3ccc4ccccc4n3)nc(NCC3(O)CCNCC3)nc12 [Compound 212]	< 6.00	5.00 to 6.00	A (A=greater than 200 fold)	B (B=less than 200 fold, but greater than 20 fold)	B (B=less than 200 fold, but greater than 20 fold)	> 7.00	5.00 to 6.00	< 6.00	< 6.00	5.00 to 6.00
CC(C)C(=O)N1CCc2nn(-c3ccccc3CNc3nc(N4CCC(N)CC4)nc4c(C(C)C)cnn34)cc2C1 [Compound 148]	< 6.00	> 6.00	A (A=greater than 200 fold)	A (A=greater than 200 fold)	B (B=less than 200 fold, but greater than 20 fold)	> 7.00	> 6.00	6.00 to 7.00	> 7.00	> 6.00
CC(C)c1cnn2c(NCc3ccccc3-c3ccc4ccccc4n3)nc(NCC(O)CCN)nc12 (racemic) [Compound 240]	< 6.00	> 6.00	A (A=greater than 200 fold)	A (A=greater than 200 fold)	A (A=greater than 200 fold)	> 7.00	> 6.00	< 6.00	< 6.00	> 6.00
Cc1cccc(C)c1CNc1nc(N2CCC(N)CC2)nc2c(C(C)C)cnn12 [Compound 235]	< 6.00	5.00 to 6.00	A (A=greater than 200 fold)	B (B=less than 200 fold, but greater than 20 fold)	B (B=less than 200 fold, but greater than 20 fold)	> 7.00	5.00 to 6.00	< 6.00	6.00 to 7.00	5.00 to 6.00
CC(C)c1cnn2c(NCc3ccccc3-n3cc(C(=O)NC4CCOCC4)cn3)nc(N3CCC(N)CC3)nc12 [Compound 155]	6.00 to 7.00	> 6.00	A (A=greater than 200 fold)	B (B=less than 200 fold, but greater than 20 fold)	B (B=less than 200 fold, but greater than 20 fold)	> 7.00	> 6.00	6.00 to 7.00	> 7.00	> 6.00
CC(C)c1cnn2c(NCc3ccccc3-c3ccc4ccccc4n3)cc(OCC3CCNCC3)nc12 [Compound 213]	< 6.00	5.00 to 6.00	A (A=greater than 200 fold)	A (A=greater than 200 fold)	A (A=greater than 200 fold)	> 7.00	5.00 to 6.00	< 6.00	< 6.00	5.00 to 6.00
CC(C)c1cnn2c(NCc3ccccc3-c3ccc4ccccc4n3)cc(NCC3(O)CCNCC3)nc12 [Compound 208]	6.00 to 7.00	> 6.00	B (B=less than 200 fold, but greater than 20 fold)	C (C=less than 20 fold)	B (B=less than 200 fold, but greater than 20 fold)	> 7.00	> 6.00	> 7.00	6.00 to 7.00	> 6.00
CC(C)c1cnn2c(NCc3ccccc3-n3cc(C(=O)Nc4ccccc4)cn3)nc(N3CCC(N)CC3)nc12 [Compound 152]	< 6.00	> 6.00	A (A=greater than 200 fold)	B (B=less than 200 fold, but greater than 20 fold)	B (B=less than 200 fold, but greater than 20 fold)	> 7.00	> 6.00	6.00 to 7.00	> 7.00	> 6.00
